From patent publication US9493461B2, “Tetracyclic heterocycle compounds and methods of use thereof for the treatment of hepatitis C” (priority 2013, dated 2016)

Experiments:
[1] = system: HCV replicon genotype 1a; assay: HCV replicon assay, genotype 1a (cell ELISA for replicon-encoded NS3/4A); assay type: cell-based, hepatitis C virus (HCV); settings: Hepatitis C virus, 96 h, read-out: 1a IC50 (nM), genotype 1a replicon cells, 96 hours incubation, NS3/4A ELISA readout, % of DMSO control
Outline: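 Stable G418-selected neomycin-resistant HCV replicon cells were plated with serially diluted compound without G418 and incubated 96 h. After washing and lysis, replicon RNA was measured indirectly by cell ELISA for replicon-encoded NS3/4A; IC50 from four-parameter fit relative to DMSO control.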

[2] = system: HCV replicon genotype 1b; assay: HCV replicon assay, genotype 1b (cell ELISA for replicon-encoded NS3/4A); assay type: cell-based, hepatitis C virus (HCV); settings: Hepatitis C virus, 96 h, read-out: 1b IC50 (nM), genotype 1b replicon cells, 96 hours incubation, NS3/4A ELISA readout, % of DMSO control
Outline: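 Genotype 1b replicon cells (neomycin-selected, G418 removed for assay) incubated 96 h with compound dilution series. Replication measured by cell ELISA for replicon-encoded NS3/4A after lysis; IC50 from four-parameter fit relative to DMSO control.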

| SMILES | IC50 [1] [nM] | IC50 [2] [nM] |
| --- | --- | --- |
| CNC(=O)c1c(-c2ccc(F)cc2)oc2cc(N(C)S(C)(=O)=O)c(-c3ccc4c(n3)-c3cc5c(F)cccc5n3C(C)N4)cc12 (stereo not drawn) [Example 61, 5-(11-fluoro-6-methyl-5,6-dihydropyrido[3′,2′:4,5]pyrimido[1,6-a]indol-2-yl)-2-(4-fluorophenyl)-N-methyl-6-(N-methylmethylsulfonamido)benzofuran-3-carboxamide] | 2.6 | 3.01 |
| CNC(=O)c1c(-c2ccc(F)cc2)oc2cc(N(C)S(C)(=O)=O)c(-c3ccc4nc(C(=O)OC)n5c6cccc(F)c6cc5c4n3)cc12 [Example 62, methyl 11-fluoro-2-(2-(4-fluorophenyl)-3-(methylcarbamoyl)-6-(N-methylmethylsulfonamido)benzofuran-5-yl)pyrido[3′,2′:4,5]pyrimido[1,6-a]indole-6-carboxylate] | 8.67 | 12.2 |
| CNC(=O)c1c(-c2ccc(F)cc2)oc2cc(N(C)S(C)(=O)=O)c(-c3ccc4nc(CC(=O)OC)n5c6cccc(F)c6cc5c4n3)cc12 [Example 63, methyl 2-(11-fluoro-2-(2-(4-fluorophenyl)-3-(methylcarbamoyl)-6-(N-methylmethylsulfonamido)benzofuran-5-yl)pyrido[3′,2′:4,5]pyrimido[1,6-a]indol-6-yl)acetate] | 1.55 | 2.76 |
| CNC(=O)c1c(-c2ccc(F)cc2)oc2cc(N(C)S(C)(=O)=O)c(-c3ccc4c(n3)-c3cc5c(F)cccc5n3C(CO)N4)cc12 (stereo not drawn) [Example 64, 5-(11-fluoro-6-(hydroxymethyl)-5,6-dihydropyrido[3′,2′:4,5]pyrimido[1,6-a]indol-2-yl)-2-(4-fluorophenyl)-N-methyl-6-(N-methylmethylsulfonamido)benzofuran-3-carboxamide] | 11.8 | 11.8 |
| CNC(=O)c1c(-c2ccc(F)cc2)oc2cc(N(C)S(C)(=O)=O)c(-c3ccc4c(n3)-c3cc5c(F)cccc5n3C(CCO)N4)cc12 (stereo not drawn) [Example 65, 5-(11-fluoro-6-(2-hydroxyethyl)-5,6-dihydropyrido[3′,2′:4,5]pyrimido[1,6-a]indol-2-yl)-2-(4-fluorophenyl)-N-methyl-6-(N-methylmethylsulfonamido)benzofuran-3-carboxamide] | 2.52 | 2.42 |
| CNC(=O)c1c(-c2ccc(F)cc2)oc2cc(N(C)S(C)(=O)=O)c(-c3ccc4c(n3)-c3cc5c(F)cccc5n3C(C)(C)N4)cc12 [Example 66, 5-(11-fluoro-6,6-dimethyl-5,6-dihydropyrido[3′,2′:4,5]pyrimido[1,6-a]indol-2-yl)-2-(4-fluorophenyl)-N-methyl-6-(N-methylmethylsulfonamido)benzofuran-3-carboxamide] | 5.96 | 9.23 |
| CNC(=O)c1c(-c2ccc(F)cc2)oc2cc(N(C)S(C)(=O)=O)c(-c3ccc4c(n3)-c3cc5c(F)cccc5n3CN4C)cc12 [Example 67, 5-(11-fluoro-5-methyl-5,6-dihydropyrido[3′,2′:4,5]pyrimido[1,6-a]indol-2-yl)-2-(4-fluorophenyl)-N-methyl-6-(N-methylmethylsulfonamido)benzofuran-3-carboxamide] | 1.56 | 2.72 |
| CNC(=O)c1c(-c2ccc(F)cc2)oc2cc(N(C)S(C)(=O)=O)c(-c3ccc4c(n3)-c3cc5c(F)cccc5n3CN4CC(=O)OC)cc12 [Example 69, methyl 2-(11-fluoro-2-(2-(4-fluorophenyl)-3-(methylcarbamoyl)-6-(N-methylmethylsulfonamido)benzofuran-5-yl)pyrido[3′,2′:4,5]pyrimido[1,6-a]indol-5(6H)-yl)acetate] | 9.69 | 6.04 |
| CNC(=O)c1c(-c2ccc(F)cc2)oc2cc(N(C)S(C)(=O)=O)c(-c3ccc4c(n3)-c3cc5c(F)cccc5n3CN4CC(=O)O)cc12 [Example 70, 2-(11-fluoro-2-(2-(4-fluorophenyl)-3-(methylcarbamoyl)-6-(N-methylmethylsulfonamido)benzofuran-5-yl)pyrido[3′,2′:4,5]pyrimido[1,6-a]indol-5(6H)-yl)acetic acid] | 35.2 | 26.8 |
| CNC(=O)c1c(-c2ccc(F)cc2)oc2cc(N(C)S(C)(=O)=O)c(-c3ccc4c(n3)-c3cc5c(F)cccc5n3C(CC(=O)OC)N4)cc12 (stereo not drawn) [Example 71, methyl 2-(11-fluoro-2-(2-(4-fluorophenyl)-3-(methylcarbamoyl)-6-(N-methylmethylsulfonamido)benzofuran-5-yl)-5,6-dihydropyrido[3′,2′:4,5]pyrimido[1,6-a]indol-6-yl)acetate] | 2.98 | 3.44 |
| CNC(=O)c1c(-c2ccc(F)cc2)oc2cc(N(C)S(C)(=O)=O)c(-c3ccc4c(n3)-c3cc5c(F)cccc5n3C(CC(=O)O)N4)cc12 (stereo not drawn) [Example 72, 2-(11-fluoro-2-(2-(4-fluorophenyl)-3-(methylcarbamoyl)-6-(N-methylmethylsulfonamido)benzofuran-5-yl)-5,6-dihydropyrido[3′,2′:4,5]pyrimido[1,6-a]indol-6-yl)acetic acid] | 22.8 | 15.6 |
| CNC(=O)c1c(-c2ccc(F)cc2)oc2cc(N(C)S(C)(=O)=O)c(-c3cc4c(cn3)ncn3c5cccc(F)c5cc43)cc12 [Example 74, 2-(4-fluorophenyl)-5-(11-fluoropyrido[3′,4′:4,5]pyrimido[1,6-a]indol-2-yl)-N-methyl-6-(N-methylmethylsulfonamido)benzofuran-3-carboxamide] | 1.21 | 3.07 |
| CNC(=O)c1c(-c2ccc(F)cc2F)oc2cc(N(C)S(C)(=O)=O)c(-c3cc4c(cn3)ncn3c5cccc(F)c5cc43)cc12 [Example 75] | 1.03 | 2.78 |
| CNC(=O)c1c(-c2ccc(F)cc2)oc2cc(N(C)S(C)(=O)=O)c(-c3ccc4nc(CN5CC(F)C5)n5c6cccc(F)c6cc5c4n3)cc12 [Example 76, 3-fluoro-1-((11-fluoro-2-(2-(4-fluorophenyl)-3-(methylcarbamoyl)-6-(N-methylmethylsulfonamido)benzofuran-5-yl)pyrido[3′,2′:4,5]pyrimido[1,6-a]indol-6-yl)methyl)azetidin-1-ium methanesulfonate] | 4.13 | 3.78 |
| CNC(=O)c1c(-c2ccc(F)cc2)oc2cc(N(C)S(C)(=O)=O)c(-c3ccc4nc(CN5CC(O)C5)n5c6cccc(F)c6cc5c4n3)cc12 [Example 77] | 5.26 | 5.61 |
| CNC(=O)c1c(-c2ccc(F)cc2)oc2cc(N(C)S(C)(=O)=O)c(-c3ccc4nc(CN5CC(C)(O)C5)n5c6cccc(F)c6cc5c4n3)cc12 [Example 78] | 2.8 | 3.34 |
| CNC(=O)c1c(-c2ccc(F)cc2)oc2cc(N(C)S(C)(=O)=O)c(-c3ccc4nc(CN5CC6(CCOCC6)C5)n5c6cccc(F)c6cc5c4n3)cc12 [Example 79] | 2.37 | 3.99 |
| CNC(=O)c1c(-c2ccc(F)cc2)oc2cc(N(C)S(C)(=O)=O)c(-c3ccc4nc(CN5CC(F)(F)C5)n5c6cccc(F)c6cc5c4n3)cc12 [Example 80] | 2.65 | 2.46 |
| CNC(=O)c1c(-c2ccc(F)cc2)oc2cc(N(C)S(C)(=O)=O)c(-c3ccc4nc(CN5CC(C)(F)C5)n5c6cccc(F)c6cc5c4n3)cc12 [Example 81] | 3.24 | 3.28 |
| CNC(=O)c1c(-c2ccc(F)cc2)oc2cc(N(C)S(C)(=O)=O)c(-c3ccc4nc(CN5CCC(F)(F)C5)n5c6cccc(F)c6cc5c4n3)cc12 [Example 82] | 2.74 | 2.45 |
| CNC(=O)c1c(-c2ccc(F)cc2)oc2cc(N(C)S(C)(=O)=O)c(-c3ccc4nc(CN5CC[C@H](O)C5)n5c6cccc(F)c6cc5c4n3)cc12 [Example 83] | 1.33 | 1.31 |
| CNC(=O)c1c(-c2ccc(F)cc2)oc2cc(N(C)S(C)(=O)=O)c(-c3ccc4nc(CN5CCC5)n5c6cccc(F)c6cc5c4n3)cc12 [Example 84] | 1.34 | 1.96 |
| CNC(=O)c1c(-c2ccc(F)cc2)oc2cc(N(C)S(C)(=O)=O)c(-c3ccc4nc(CN5CC[C@@H](F)C5)n5c6cccc(F)c6cc5c4n3)cc12 [Example 85] | 1.76 | 2.34 |
| CNC(=O)c1c(-c2ccc(F)cc2)oc2cc(N(C)S(C)(=O)=O)c(-c3ccc4nc(CN5CC[C@H](F)C5)n5c6cccc(F)c6cc5c4n3)cc12 [Example 86] | 1.99 | 2.66 |
| CNC(=O)c1c(-c2ccc(F)cc2)oc2cc(N(C)S(C)(=O)=O)c(-c3ccc4nc(CN5CC[C@@H](O)C5)n5c6cccc(F)c6cc5c4n3)cc12 [Example 87] | 1.28 | 1.26 |
| CNC(=O)c1c(-c2ccc(F)cc2)oc2cc(N(C)S(C)(=O)=O)c(-c3ccc4nc(CN5CC(OC)C5)n5c6cccc(F)c6cc5c4n3)cc12 [Example 88] | 4.09 | 4.22 |
| CNC(=O)c1c(-c2ccc(F)cc2)oc2cc(N(C)S(C)(=O)=O)c(-c3ccc4nc(CN5CC(C)(C#N)C5)n5c6cccc(F)c6cc5c4n3)cc12 [Example 89] | 3.41 | 3.45 |
| CNC(=O)c1c(-c2ccc(F)cc2)oc2cc(N(C)S(C)(=O)=O)c(-c3ccc4nc(CN5CCOCC5)n5c6cccc(F)c6cc5c4n3)cc12 [Example 90] | 3.62 | 3.66 |
| CNC(=O)c1c(-c2ccc(F)cc2)oc2cc(N(C)S(C)(=O)=O)c(-c3ccc4nc(CN5CC[C@H](OC)C5)n5c6cccc(F)c6cc5c4n3)cc12 [Example 91] | 3.58 | 6.54 |
| CNC(=O)c1c(-c2ccc(F)cc2)oc2cc(N(C)S(C)(=O)=O)c(-c3ccc4nc(CN5CCC(F)(F)CC5)n5c6cccc(F)c6cc5c4n3)cc12 [Example 92] | 14.6 | 23.7 |
